Source: US20230190954A1, “COMPOSITION AND METHODS FOR TREATMENT OF PRIMARY CILIARY DYSKINESIA” (TRANSLATE BIO, INC., priority 2020, published 2023)

Legend:
mouse lungs [1] = assay: In vivo screen of cationic lipids: FFL mRNA-LNP pulmonary delivery, IVIS luciferase imaging; set-up: species or system male CD1 mice; settings: for potency as determined by the average radiance detected in mouse lungs: FFL mRNA-LNP, single intratracheal administration, about 5 hours post-dose; for selection based on performance in the in vivo screen: about 150 cationic lipids tested; for suitability/performance in liposomes administered through pulmonary delivery via nebulization: mouse, in vivo
Protocol: In this example, various cationic lipids were tested for in vivo efficacy when mRNA encapsulated in lipid nanoparticles (mRNA-LNP) were administered to mice by pulmonary delivery. The cationic lipids were tested for both potency, as determined by levels of protein production, and tolerability, as determined by side effects associated with clearance and metabolism.
About 150 cationic lipids were tested. (FIG. 9). Each cationic lipid was used in preparing lipid nanoparticles encapsulating mRNA encoding firefly luciferase protein (FFL mRNA) according to methods known in the art. For example, suitable methods for mRNA encapsulation include methods described in International Publication Nos. WO2016/004318 and WO 2018/089801, which is hereby incorporated by reference in its entirety. The tested lipid nanoparticles comprised a lipid component consisting of a cationic lipid, a non-cationic lipid (DOPE), a PEG-modified lipid (DMG-PEG2K), and optionally cholesterol.
Lipid nanoparticle formulations comprising FFL mRNA were administered to male CD1 mice by a single intratracheal administration via nebulization using a Microsprayer®. At approximately 5 hours post-dose, the animals were dosed with luciferin by intraperitoneal injection and all animals were imaged using an IVIS imaging system to measure luciferase production in the lung. […] Some cationic lipids remarkably had greater than 50-fold increase in pulmonary protein expression as compared to other cationic lipids.

mouse lungs [2] = assay: as above; set-up: species or system male CD1 mice; settings: pulmonary-delivered (e.g., nebulized) FFL mRNA in LNP with this cationic lipid, threshold lines in FIG. 9

SMILES | potency as determined by the average radiance detected in mouse lungs (mouse lungs [1]) | selection based on performance in the in vivo screen (mouse lungs [1]) | suitability/performance in liposomes administered through pulmonary delivery via nebulization (mouse lungs [1]) | historical radiance/expression of pulmonary-delivered FFL mRNA-LNP (mouse lungs [2])
CCCCC/C=C\C/C=C\CCCCCCCC(=O)OCC(COC(=O)CCCCCCC/C=C\C/C=C\CCCCC)(COC(=O)CCCCCCC/C=C\C/C=C\CCCCC)NCCS(=O)(=O)NCCN(C)C [GL-TES-SA-DME-E18-2, 2-((2-(N-(2-(dimethylamino)ethyl)sulfamoyl)ethyl)amino)-2-((((9Z,12Z)-octadeca-9,12-dienoyl)oxy)methyl)propane-1,3-diyl (9Z,9′Z,12Z,12′Z)-bis(octadeca-9,12-dienoate)] | particularly high potency | selected for further investigation | performed particularly well | 
CCCCC/C=C\C/C=C\CCCCCCCC(=O)OCC(COC(=O)CCCCCCC/C=C\C/C=C\CCCCC)(COC(=O)CCCCCCC/C=C\C/C=C\CCCCC)NCCS(=O)(=O)NCCCN(C)C [GL-TES-SA-DMP-E18-2] | particularly high potency | selected for further investigation | performed particularly well | 
CCCCCCCCC(O)CN(CCCC(=O)OCCN1CC(C)N(CCOC(=O)CCCN(CC(O)CCCCCCCC)CC(O)CCCCCCCC)CC1C)CC(O)CCCCCCCC (stereo not shown) [HEP-E3-E10] | particularly high potency | selected for further investigation | performed particularly well | 
CCCCCCCCC(O)CN(CCCCC(=O)OCCN1CC(C)N(CCOC(=O)CCCCN(CC(O)CCCCCCCC)CC(O)CCCCCCCC)CC1C)CC(O)CCCCCCCC (stereo not shown) [HEP-E4-E10] | particularly high potency | selected for further investigation | performed particularly well | 
CC(C)CCCC(C)C1CCC2C3CC=C4CC(SSCCNC(=N)N)CCC4(C)C3CCC12C (stereo not shown) [HGT4002] |  | selected for further investigation |  | 
CC(C)CCCC(C)[C@H]1CCC2C3CC=C4C[C@@H](OC(=O)CCc5c[nH]cn5)CC[C@]4(C)C3CC[C@@]21C (stereo partly shown) [ICE, imidazole cholesterol ester] |  |  |  | around 10^4 p/s/cm^2sr
CCCCCCCCCCCCC(O)CN(CCCC(=O)Oc1c(OC)cc(C(=O)OCCCN(C)C)cc1OC)CC(O)CCCCCCCCCCCC (stereo not shown) [SY-3-E14-DMAPr] |  | selected for further investigation |  | 
CCCCCCCCOC(=O)CC(CC(=O)OCCCCCCCC)(OC(=O)CCN(C)C)C(=O)OCCCCCCCC [TL1-01D-DMA, trioctyl 2-((3-(dimethylamino)propanoyl)oxy)propane-1,2,3-tricarboxylate] | particularly high potency | selected for further investigation | performed particularly well | 
CCCCCCCCCCCCCCOC(=O)CC(CC(=O)OCCCCCCCCCCCCCC)(OC(=O)CCN(C)C)C(=O)OCCCCCCCCCCCCCC [TL1-04D-DMA] | particularly high potency | selected for further investigation | performed particularly well | 
CCCCCCCC(=O)OCCCCCCCCCOC(=O)CC(CC(=O)OCCCCCCCCCOC(=O)CCCCCCC)(OC(=O)CCN(C)C)C(=O)OCCCCCCCCCOC(=O)CCCCCCC [TL1-10D-DMA] |  | selected for further investigation |  | 
